Assay [1] addresses high-affinity receptor (NTSR2). To be noted: binding affinity to its high-affinity receptor (NTSR2) according to the literature; ref [69]; cited from earlier work.
In the next assay the target is NTSR2 antibody. The experiment in a line: NTSR2 antibody–NTS(8–13) peptide binding affinity by microscale thermophoresis (MST). To be noted: Monolith NT.115 Pico, RED-NHS-labeled NTSR2 antibody 20 nM, PBS with 0.005% Tween-20, 20 min dark incubation, 16 serial dilutions from 0.5 mg/mL, free peptide in solution, n = 3, read-out: dissociation constant (Kd). As for the experimental part: An RED-NHS 2nd generation protein labeling kit and Monolith NT.115 premium capillaries were obtained from NanoTemper Technologies (Munich, Germany). The binding affinity of the NTSR2 antibody–NTS(8–13) peptide interaction was evaluated using microscale thermophoresis (MST) with Monolith NT.115 Pico instrument (NanoTemper Technologies, Munich, Germany). The NTSR2 antibody was labeled with the Monolith protein labeling kit and RED-NHS 2nd generation kit and used as a target molecule in PBS with 0.005% Tween-20. Experiments were conducted using the Monolith NT.115 premium capillariesat Pico-RED 80% excitation power and medium MST power with thermophoresis. For the labeled NTSR2 antibody, a concentration of 20 nM was used, whereas for the NTS(8–13) peptide, 16 serial dilutions were prepared starting from 0.5 mg/mL. Dark incubation was performed for 20 min after mixing the target and ligand molecule. Triplicate results were analyzed using the M.O. affinity analysisv.2.3 software.

Consider “RRPYIL [NTS(8–13), fragment of the neurotensin peptide (RRPYIL)]”, for which the Kd (commonly the constant that tells how readily two partners part at equilibrium) in assay [1] is 0.005 to 0.007 µM; at NTSR2 antibody it was 32.9 µM.

Source of the values: publication PMC12191028, “Preparation of Nanoparticle-Immobilized Gold Surfaces for the Reversible Conjugation of Neurotensin Peptide” (Biomolecules, 2025).
